{
  "source": "ChEMBL document CHEMBL2073873",
  "about": "“Identification of a novel human organic anion transporting polypeptide as a high affinity thyroxine transporter” (Mol Endocrinol, 2002)",
  "molecules": {"B1": {"name": "Solute carrier organic anion transporter family member 1C1 (Homo sapiens) (protein)", "chain": "MDTSSKENIQLFCKTSVQPVGRPSFKTEYPSSEEKQPCCGELKVFLCALSFVYFAKALAEGYLKSTITQIERRFDIPSSLVGVIDGSFEIGNLLVITFVSYFGAKLHRPKIIGAGCVIMGVGTLLIAMPQFFMEQYKYERYSPSSNSTLSISPCLLESSSQLPVSVMEKSKSKISNECEVDTSSSMWIYVFLGNLLRGIGETPIQPLGIAYLDDFASEDNAAFYIGCVQTVAIIGPIFGFLLGSLCAKLYVDIGFVNLDHITITPKDPQWVGAWWLGYLIAGIISLLAAVPFWYLPKSLPRSQSREDSNSSSEKSKFIIDDHTDYQTPQGENAKIMEMARDFLPSLKNLFGNPVYFLYLCTSTVQFNSLFGMVTYKPKYIEQQYGQSSSRANFVIGLINIPAVALGIFSGGIVMKKFRISVCGAAKLYLGSSVFGYLLFLSLFALGCENSDVAGLTVSYQGTKPVSYHERALFSDCNSRCKCSETKWEPMCGENGITYVSACLAGCQTSNRSGKNIIFYNCTCVGIAASKSGNSSGIVGRCQKDNGCPQMFLYFLVISVITSYTLSLGGIPGYILLLRCIKPQLKSFALGIYTLAIRVLAGIPAPVYFGVLIDTSCLKWGFKRCGSRGSCRLYDSNVFRHIYLGLTVILGTVSILLSIAVLFILKKNYVSKHRSFITKRERTMVSTRFQKENYTTSDHLLQPNYWPGKETQL"}},
  "note": "Residues, ends and D or L forms follow the SMILES beside them.",
  "data": [
    {"substrate": "N[C@@H](Cc1cc(I)c(Oc2cc(I)c(O)c(I)c2)c(I)c1)C(=O)O", "test": "(§1) TP_TRANSPORTER: uptake in OATP-F-expressing CHO cells", "type": "functional, cell-based", "details": "not given", "units": {"Km": "µM"}, "values": [
      {"molecule": "B1", "Km": 0.0904}
    ]},
    {"substrate": "N[C@@H](Cc1ccc(Oc2cc(I)c(O)c(I)c2)c(I)c1)C(=O)O", "test": "as §1", "type": "functional, cell-based", "details": "not given", "units": {"Km": "µM"}, "values": [
      {"molecule": "B1", "Km": 0.128}
    ]},
    {"biological_target": "T1, Solute carrier organic anion transporter family member 1C1 (Homo sapiens, UniProt Q9NYB5)", "T1 sequence (Q9NYB5 whole entry)": "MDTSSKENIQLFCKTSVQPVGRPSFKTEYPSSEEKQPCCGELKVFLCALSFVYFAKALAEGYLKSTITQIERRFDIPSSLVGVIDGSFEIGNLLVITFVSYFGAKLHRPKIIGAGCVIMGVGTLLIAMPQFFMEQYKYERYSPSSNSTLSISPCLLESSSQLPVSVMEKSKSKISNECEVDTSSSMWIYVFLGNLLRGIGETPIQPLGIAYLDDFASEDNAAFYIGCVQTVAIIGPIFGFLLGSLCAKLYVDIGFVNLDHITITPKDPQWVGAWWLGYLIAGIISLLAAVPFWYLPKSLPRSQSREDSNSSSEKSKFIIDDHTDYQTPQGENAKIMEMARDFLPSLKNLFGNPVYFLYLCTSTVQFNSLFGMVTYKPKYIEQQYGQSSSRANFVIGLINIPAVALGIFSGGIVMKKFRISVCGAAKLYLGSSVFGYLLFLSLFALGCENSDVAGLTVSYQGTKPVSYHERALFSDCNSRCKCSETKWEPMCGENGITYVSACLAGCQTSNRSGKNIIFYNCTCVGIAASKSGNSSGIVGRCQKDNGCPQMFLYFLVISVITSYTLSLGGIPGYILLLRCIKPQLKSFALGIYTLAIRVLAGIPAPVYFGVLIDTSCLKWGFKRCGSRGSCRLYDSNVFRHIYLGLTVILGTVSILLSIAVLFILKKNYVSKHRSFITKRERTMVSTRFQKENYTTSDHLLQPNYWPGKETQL", "test": "as §1", "type": "functional, cell-based", "details": "hamster", "values": [
      {"molecule": "CCCCC[C@H](O)/C=C/[C@H]1[C@H](O)CC(=O)[C@@H]1C/C=C\\CCCC(=O)O", "note": "[DINOPROSTONE]", "Activity": "is not a substrate [-]"},
      {"molecule": "CCCCC/C=C\\C\\C=C/C=C/C=C/[C@@H](SC[C@@H](NC(=O)CC[C@H](N)C(=O)O)C(=O)NCC(=O)O)[C@@H](O)CCCC(=O)O", "note": "[LEUKOTRIEN C4]", "Activity": "is not a substrate [-]"},
      {"molecule": "CC1(C)SSC(C)(C)[C@@H](NC(=O)[C@@H](N)Cc2ccc(O)cc2)C(=O)NCC(=O)N[C@@H](Cc2ccccc2)C(=O)N[C@H]1C(=O)O", "Activity": "is not a substrate [-]"},
      {"molecule": "N[C@@H](Cc1cc(I)c(Oc2ccc(O)c(I)c2)c(I)c1)C(=O)O", "note": "[LIOTHYRONINE]", "Activity": "substrate [+]"},
      {"molecule": "C[C@]12CC[C@H](OS(=O)(=O)O)CC1=CC[C@@H]1[C@@H]2CC[C@]2(C)C(=O)CC[C@@H]12", "note": "[PRASTERONE SULFURIC ACID]", "Activity": "is not a substrate [-]"},
      {"molecule": "O=C1OC(c2ccc(O)c(S(=O)(=O)[O-])c2)(c2ccc(O)c(S(=O)(=O)[O-])c2)c2c(Br)c(Br)c(Br)c(Br)c21.[Na+].[Na+]", "note": "[SULFOBROMOPHTHALEIN SODIUM]", "Activity": "substrate [+]"},
      {"molecule": "C[C@H](CCC(=O)NCC(=O)O)[C@H]1CC[C@H]2[C@@H]3[C@H](O)C[C@@H]4C[C@H](O)CC[C@]4(C)[C@H]3C[C@H](O)[C@]12C", "note": "[GLYCOCHOLIC ACID]", "Activity": "is not a substrate [-]"},
      {"molecule": "CN(Cc1cnc2nc(N)nc(N)c2n1)c1ccc(C(=O)N[C@@H](CCC(=O)O)C(=O)O)cc1", "note": "[METHOTREXATE]", "Activity": "is not a substrate [-]"},
      {"molecule": "C[C@]12CC[C@@H]3c4ccc(OS(=O)(=O)O)cc4CC[C@H]3[C@@H]1CCC2=O", "note": "[ESTRONE SULFURIC ACID]", "Activity": "substrate [+]"},
      {"molecule": "CC(C)[C@H](NC(=O)[C@H](CCC(=O)O)NC(=O)[C@H](Cc1ccccc1)NC(=O)[C@@H](C)NC(=O)[C@@H](N)Cc1ccc(O)cc1)C(=O)N[C@H](C(=O)NCC(N)=O)C(C)C", "note": "[DELTORPHIN II]", "Activity": "is not a substrate [-]"},
      {"molecule": "C[C@@H]1O[C@@H](O[C@H]2C[C@@H](O)[C@]3(CO)[C@H]4[C@H](O)C[C@]5(C)[C@@H](C6=CC(=O)OC6)CC[C@]5(O)[C@@H]4CC[C@]3(O)C2)[C@H](O)[C@H](O)[C@H]1O", "note": "[OUABAIN]", "Activity": "is not a substrate [-]"},
      {"molecule": "C[C@]12CC[C@@H]3c4ccc(O)cc4CC[C@H]3[C@@H]1CC[C@@H]2O[C@@H]1O[C@H](C(=O)O)[C@@H](O)[C@H](O)[C@H]1O", "note": "[ESTRADIOL 17B GLUCURONIDE]", "Activity": "substrate [+]"},
      {"molecule": "CC(C)C[C@@H]1NC(=O)[C@@H](C(C)C)NC(=O)[C@@H]2CCCN2C(=O)[C@@H](CC(=O)O)NC(=O)[C@@H](Cc2c[nH]c3ccccc23)NC1=O", "note": "[BQ-123] (HELM PEPTIDE1{L.[dW].[dD].P.[dV]}$PEPTIDE1,PEPTIDE1,1:R1-5:R2$$$V2.0)", "Activity": "is not a substrate [-]"},
      {"molecule": "C=C[C@H]1C[N+]2(C)CC[C@H]1C[C@H]2[C@H](O)c1ccnc2ccc(OC)cc12", "Activity": "is not a substrate [-]"}
    ]}
  ]
}
